Measurements taken from US10966993B2, “Pharmaceutical composition comprising a sulfonylurea drug and preparation method thereof” (JIANGSU AOSAIKANG PHARMACEUTICAL CO., LTD., priority 2016, dated 2021).
Values after ≈ are worked out from the molar mass of the structure shown. Where two headings read alike, the source gives them in different places.

Test: Test on the solubility of glibenclamide in additive/cyclodextrin solutions
Format: physicochemical
Conditions: 25 °C, thermodynamic from solid
Description: An excess amount of glibenclamide powder was added into an aqueous solution comprising different proportion of additive (e.g., meglumine, sodium carbonate, sodium hydrogen carbonate or sodium hydroxide) and cyclodextrin (hydroxypropyl-β-cyclodextrin) to form a suspension. The suspension was placed in a constant shaking incubator, and shaken for 1 h at 25±1° C. The shaken suspension was filtered with a 0.45 μm hydrophilic filter membrane, with the primary filtrate being disposed and the subsequent filtrate being collected. The subsequent filtrate was diluted to appropriate times with a PBS buffer having a pH of 7.4, the absorbance of the diluted subsequent filtrate was determined at a wavelength of 225 nm, and the solubility of glibenclamide in the diluted subsequent filtrate was calculated according to the absorbance. Corresponding solubility curves were plotted with the solubility of glibenclamide as the vertical axis and the concentration of cyclodextrin and/or meglumine as the horizontal axis.

## COc1ccc(Cl)cc1C(=O)NCCc1ccc(S(=O)(=O)NC(=O)NC2CCCCC2)cc1 [glibenclamide, 5-chloro-N-(4-[N-(cyclohexylcarbamoyl)aminosulfonyl]phenethyl)-2-methoxybenzamide]
Aqueous buffer, meglumine 0.1% (w/v), cyclodextrin 0% (w/v), read-out: Solubility
  solubility at 1 h: 960 µg/mL (≈ 1.94 mM)
Aqueous buffer, meglumine 0.5% (w/v), cyclodextrin 0% (w/v), read-out: Solubility
  solubility at 1 h: 1760 µg/mL (≈ 3.56 mM)
Aqueous buffer, meglumine 1% (w/v), cyclodextrin 0% (w/v), read-out: Solubility
  solubility at 1 h: 4930 µg/mL (≈ 9.98 mM)
Aqueous buffer, meglumine 2.5% (w/v), cyclodextrin 0% (w/v), read-out: Solubility
  solubility at 1 h: 8030 µg/mL (≈ 16.3 mM)
Aqueous with cosolvent or surfactant or cyclodextrin, cyclodextrin only, from 0.5% (w/v) to 40% (w/v), read-out: water solubility of glibenclamide
  solubility at 1 h: 1.3 to 120 µg/mL (≈ 0.00263 to 0.243 mM)
Aqueous with cosolvent or surfactant or cyclodextrin, meglumine 0% (w/v), 2-hydroxypropyl-β-cyclodextrin 0.5% (w/v), read-out: Solubility
  solubility at 1 h: 1.3 µg/mL (≈ 0.00263 mM)
Aqueous with cosolvent or surfactant or cyclodextrin, meglumine 0% (w/v), 2-hydroxypropyl-β-cyclodextrin 1.25% (w/v), read-out: Solubility
  solubility at 1 h: 3.1 µg/mL (≈ 0.00628 mM)
Aqueous with cosolvent or surfactant or cyclodextrin, meglumine 0% (w/v), 2-hydroxypropyl-β-cyclodextrin 2.5% (w/v), read-out: Solubility
  solubility at 1 h: 5.8 µg/mL (≈ 0.0117 mM)
Aqueous with cosolvent or surfactant or cyclodextrin, meglumine 0% (w/v), 2-hydroxypropyl-β-cyclodextrin 5% (w/v), read-out: Solubility
  solubility at 1 h: 14 µg/mL (≈ 0.0283 mM)
Aqueous with cosolvent or surfactant or cyclodextrin, meglumine 0% (w/v), 2-hydroxypropyl-β-cyclodextrin 10% (w/v), read-out: Solubility
  solubility at 1 h: 32 µg/mL (≈ 0.0648 mM)
Aqueous with cosolvent or surfactant or cyclodextrin, meglumine 0.1% (w/v), 2-hydroxypropyl-β-cyclodextrin 0.5% (w/v), read-out: Solubility
  solubility at 1 h: 1250 µg/mL (≈ 2.53 mM)
Aqueous with cosolvent or surfactant or cyclodextrin, meglumine 0.1% (w/v), 2-hydroxypropyl-β-cyclodextrin 1.25% (w/v), read-out: Solubility
  solubility at 1 h: 1420 µg/mL (≈ 2.87 mM)
Aqueous with cosolvent or surfactant or cyclodextrin, meglumine 0.1% (w/v), 2-hydroxypropyl-β-cyclodextrin 2.5% (w/v), read-out: Solubility
  solubility at 1 h: 1660 µg/mL (≈ 3.36 mM)
Aqueous with cosolvent or surfactant or cyclodextrin, meglumine 0.1% (w/v), 2-hydroxypropyl-β-cyclodextrin 5% (w/v), read-out: Solubility
  solubility at 1 h: 2170 µg/mL (≈ 4.39 mM)
Aqueous with cosolvent or surfactant or cyclodextrin, meglumine 0.1% (w/v), 2-hydroxypropyl-β-cyclodextrin 10% (w/v), read-out: Solubility
  solubility at 1 h: 2170 µg/mL (≈ 4.39 mM)
Aqueous with cosolvent or surfactant or cyclodextrin, meglumine 0.1% (w/v), 2-hydroxypropyl-β-cyclodextrin 20% (w/v), read-out: Solubility
  solubility at 1 h: 2230 µg/mL (≈ 4.51 mM)
Aqueous with cosolvent or surfactant or cyclodextrin, meglumine 0.1% (w/v), 2-hydroxypropyl-β-cyclodextrin 30% (w/v), read-out: Solubility
  solubility at 1 h: 2210 µg/mL (≈ 4.47 mM)
Aqueous with cosolvent or surfactant or cyclodextrin, meglumine 0.1% (w/v), 2-hydroxypropyl-β-cyclodextrin 40% (w/v), read-out: Solubility
  solubility at 1 h: 2280 µg/mL (≈ 4.62 mM)
Aqueous with cosolvent or surfactant or cyclodextrin, meglumine 0.1% (w/v), cyclodextrin from 0.5% (w/v) to 5% (w/v), read-out: water solubility of glibenclamide
  solubility at 1 h: 1250 to 2170 µg/mL (≈ 2.53 to 4.39 mM)
Aqueous with cosolvent or surfactant or cyclodextrin, meglumine 0.1% (w/v), cyclodextrin from 5% (w/v) to 40% (w/v), read-out: solubility of glibenclamide
  solubility at 1 h: ~2170 µg/mL (≈ 4.39 mM)
Aqueous with cosolvent or surfactant or cyclodextrin, meglumine 5% (w/v), 2-hydroxypropyl-β-cyclodextrin 5% (w/v), read-out: Solubility
  solubility at 1 h: 25200 µg/mL (≈ 51.1 mM)
Aqueous with cosolvent or surfactant or cyclodextrin, meglumine 5% (w/v), 2-hydroxypropyl-β-cyclodextrin 10% (w/v), read-out: Solubility
  solubility at 1 h: 34400 µg/mL (≈ 69.7 mM)
Aqueous with cosolvent or surfactant or cyclodextrin, meglumine 5% (w/v), 2-hydroxypropyl-β-cyclodextrin 20% (w/v), read-out: Solubility
  solubility at 1 h: 42200 µg/mL (≈ 85.5 mM)
Aqueous with cosolvent or surfactant or cyclodextrin, meglumine 5% (w/v), 2-hydroxypropyl-β-cyclodextrin 30% (w/v), read-out: Solubility
  solubility at 1 h: 49400 µg/mL (≈ 99.9 mM)
Aqueous with cosolvent or surfactant or cyclodextrin, meglumine 5% (w/v), 2-hydroxypropyl-β-cyclodextrin 40% (w/v), read-out: Solubility
  solubility at 1 h: 51000 µg/mL (≈ 103 mM)
Aqueous with cosolvent or surfactant or cyclodextrin, meglumine 5% (w/v), cyclodextrin 0% (w/v), read-out: Solubility
  solubility at 1 h: 13000 µg/mL (≈ 26.4 mM)
Aqueous with cosolvent or surfactant or cyclodextrin, meglumine 5% (w/v), cyclodextrin from 5% (w/v) to 30% (w/v), read-out: water solubility of glibenclamide
  solubility at 1 h: 25200 to 49400 µg/mL (≈ 51.1 to 99.9 mM)
Aqueous with cosolvent or surfactant or cyclodextrin, meglumine 5% (w/v), cyclodextrin from 30% (w/v) to 40% (w/v), read-out: solubility of glibenclamide
  solubility at 1 h: ~49400 µg/mL (≈ 99.9 mM)
Aqueous with cosolvent or surfactant or cyclodextrin, meglumine 10% (w/v), cyclodextrin 0% (w/v), read-out: Solubility
  solubility at 1 h: 19000 µg/mL (≈ 38.6 mM)
Aqueous with cosolvent or surfactant or cyclodextrin, meglumine only, from 0.1% (w/v) to 10% (w/v), read-out: water solubility of glibenclamide
  solubility at 1 h: 960 to 19000 µg/mL (≈ 1.94 to 38.6 mM)
